From the NIST ThermoML archive (doi:10.1021/acs.jced.8b00547)
± gives the expanded uncertainty stated by the source.

Columns and labels:
[1] = xn = mol fraction of the nth substance listed; details: 101 kPa, Liquid; for speed of sound: Single path-length method; for mass density: Vibrating tube method
[2] = refractive index (Na D-line) (dimensionless); xn = mol fraction of the nth substance listed; details: 101 kPa, Liquid, Standard Abbe refractometry

CCCC(C)=O [pentan-2-one] + CC(C)O
Details	mass density, [1] [kg/m3]	refractive index, [2]	speed of sound, [1] [m/s]
298.15 K, x1 = 0.0978	782.98 ± 0.46	1.3767 ± 0.00051	1146.5 ± 1.6
298.15 K, x1 = 0.2344	785.78 ± 0.46	1.3786 ± 0.00051	1157.5 ± 1.6
298.15 K, x1 = 0.3338	787.81 ± 0.46	1.37996 ± 0.00051	1165.5 ± 1.6
298.15 K, x1 = 0.4126	789.5 ± 0.46	1.38098 ± 0.00051	1171.7 ± 1.6
298.15 K, x1 = 0.4972	791.25 ± 0.46	1.38207 ± 0.00051	1178.4 ± 1.6
298.15 K, x1 = 0.6036	793.49 ± 0.46	1.3834 ± 0.00051	1186.6 ± 1.6
298.15 K, x1 = 0.7125	795.82 ± 0.47	1.38472 ± 0.0005	1195 ± 1.6
298.15 K, x1 = 0.8043	797.8 ± 0.47	1.3858 ± 0.0005	1202 ± 1.6
298.15 K, x1 = 0.9009	799.87 ± 0.47	1.3869 ± 0.0005	1209.1 ± 1.6
298.15 K, x1 = 1	802.09 ± 0.41	1.38782 ± 0.00049	1216 ± 1.4
308.15 K, x1 = 0.0978	774.13 ± 0.45	1.3723 ± 0.00051	1110.6 ± 1.6
308.15 K, x1 = 0.2344	776.72 ± 0.46	1.37412 ± 0.00051	1120.8 ± 1.6
308.15 K, x1 = 0.3338	778.65 ± 0.46	1.3754 ± 0.00051	1128.1 ± 1.6
308.15 K, x1 = 0.4126	780.23 ± 0.46	1.37637 ± 0.00051	1133.8 ± 1.6
308.15 K, x1 = 0.4972	781.85 ± 0.46	1.37741 ± 0.0005	1139.9 ± 1.6
308.15 K, x1 = 0.6036	783.93 ± 0.46	1.37867 ± 0.0005	1147.5 ± 1.6
308.15 K, x1 = 0.7125	786.12 ± 0.46	1.37993 ± 0.0005	1155.2 ± 1.6
308.15 K, x1 = 0.8043	788.05 ± 0.46	1.38098 ± 0.0005	1161.6 ± 1.6
308.15 K, x1 = 0.9009	790.07 ± 0.47	1.382 ± 0.0005	1168.2 ± 1.6
308.15 K, x1 = 1	792.32 ± 0.41	1.38284 ± 0.00049	1174.4 ± 1.4
318.15 K, x1 = 0.0978	764.87 ± 0.45	1.3677 ± 0.00051	1074.9 ± 1.6
318.15 K, x1 = 0.2344	767.32 ± 0.45	1.36948 ± 0.00051	1084.2 ± 1.6
318.15 K, x1 = 0.3338	769.16 ± 0.46	1.37072 ± 0.00051	1090.9 ± 1.6
318.15 K, x1 = 0.4126	770.69 ± 0.46	1.37167 ± 0.0005	1096.1 ± 1.6
318.15 K, x1 = 0.4972	772.19 ± 0.45	1.37268 ± 0.0005	1101.7 ± 1.6
318.15 K, x1 = 0.6036	774.18 ± 0.46	1.3739 ± 0.0005	1108.7 ± 1.6
318.15 K, x1 = 0.7125	776.29 ± 0.46	1.37511 ± 0.0005	1115.7 ± 1.6
318.15 K, x1 = 0.8043	778.16 ± 0.46	1.3761 ± 0.0005	1121.5 ± 1.5
318.15 K, x1 = 0.9009	780.17 ± 0.47	1.37708 ± 0.0005	1127.6 ± 1.5
318.15 K, x1 = 1	782.44 ± 0.41	1.37782 ± 0.00049	1133.3 ± 1.4
328.15 K, x1 = 0.0978	755.34 ± 0.44	1.36295 ± 0.00051	1039 ± 1.6
328.15 K, x1 = 0.2344	757.63 ± 0.45	1.36471 ± 0.00051	1047.7 ± 1.5
328.15 K, x1 = 0.3338	759.42 ± 0.45	1.36591 ± 0.0005	1054 ± 1.5
328.15 K, x1 = 0.4126	760.87 ± 0.45	1.36686 ± 0.0005	1058.8 ± 1.5
328.15 K, x1 = 0.4972	762.28 ± 0.45	1.36785 ± 0.0005	1064.1 ± 1.5
328.15 K, x1 = 0.6036	764.21 ± 0.45	1.36905 ± 0.0005	1070.6 ± 1.5
328.15 K, x1 = 0.7125	766.2 ± 0.46	1.37023 ± 0.0005	1077.2 ± 1.5
328.15 K, x1 = 0.8043	768.09 ± 0.47	1.3712 ± 0.0005	1082.6 ± 1.5
328.15 K, x1 = 0.9009	770.12 ± 0.47	1.37215 ± 0.0005	1088.3 ± 1.5
328.15 K, x1 = 1	772.43 ± 0.42	1.3728 ± 0.00049	1093.6 ± 1.4
338.15 K, x1 = 0.0978	744.73 ± 0.44	1.3579 ± 0.00051	1003.3 ± 1.5
338.15 K, x1 = 0.2344	746.99 ± 0.45	1.35966 ± 0.00051	1011.5 ± 1.5
338.15 K, x1 = 0.3338	748.79 ± 0.46	1.36085 ± 0.00051	1017.3 ± 1.5
338.15 K, x1 = 0.4126	750.28 ± 0.45	1.36181 ± 0.0005	1021.8 ± 1.5
338.15 K, x1 = 0.4972	751.71 ± 0.45	1.3628 ± 0.0005	1026.7 ± 1.5
338.15 K, x1 = 0.6036	753.67 ± 0.46	1.36398 ± 0.0005	1032.7 ± 1.5
338.15 K, x1 = 0.7125	755.74 ± 0.46	1.36515 ± 0.0005	1038.8 ± 1.5
338.15 K, x1 = 0.8043	757.71 ± 0.47	1.36612 ± 0.0005	1043.8 ± 1.5
338.15 K, x1 = 0.9009	759.83 ± 0.48	1.36705 ± 0.0005	1049 ± 1.5
338.15 K, x1 = 1	762.27 ± 0.42	1.36764 ± 0.00049	1053.8 ± 1.4

CCCC(C)=O [pentan-2-one] + CCC(C)O
Details	mass density, [1] [kg/m3]	refractive index, [2]	speed of sound, [1] [m/s]
298.15 K, x1 = 0.1227	801.36 ± 0.42	1.39423 ± 0.00049	1212.6 ± 1.4
298.15 K, x1 = 0.2361	800.45 ± 0.42	1.39353 ± 0.00049	1213.1 ± 1.4
298.15 K, x1 = 0.3467	800.01 ± 0.41	1.3928 ± 0.0005	1213.5 ± 1.4
298.15 K, x1 = 0.4522	799.88 ± 0.41	1.39205 ± 0.0005	1214 ± 1.4
298.15 K, x1 = 0.5521	799.79 ± 0.41	1.39133 ± 0.0005	1214.3 ± 1.4
298.15 K, x1 = 0.6518	799.88 ± 0.41	1.39059 ± 0.0005	1214.7 ± 1.4
298.15 K, x1 = 0.744	800.22 ± 0.42	1.38988 ± 0.0005	1215.1 ± 1.4
298.15 K, x1 = 0.8299	800.65 ± 0.42	1.38922 ± 0.0005	1215.4 ± 1.4
298.15 K, x1 = 0.919	801.23 ± 0.42	1.38853 ± 0.0005	1215.7 ± 1.4
298.15 K, x1 = 1	802.09 ± 0.41	1.38782 ± 0.00049	1216 ± 1.4
308.15 K, x1 = 0.1227	792.32 ± 0.43	1.38958 ± 0.00049	1175.7 ± 1.4
308.15 K, x1 = 0.2361	791.24 ± 0.42	1.38887 ± 0.00049	1175.5 ± 1.4
308.15 K, x1 = 0.3467	790.78 ± 0.42	1.38809 ± 0.0005	1175.4 ± 1.4
308.15 K, x1 = 0.4522	790.51 ± 0.41	1.38731 ± 0.0005	1175.3 ± 1.4
308.15 K, x1 = 0.5521	790.25 ± 0.41	1.38655 ± 0.0005	1175.2 ± 1.4
308.15 K, x1 = 0.6518	790.23 ± 0.41	1.38577 ± 0.0005	1175 ± 1.4
308.15 K, x1 = 0.744	790.31 ± 0.41	1.38503 ± 0.0005	1174.9 ± 1.4
308.15 K, x1 = 0.8299	790.62 ± 0.42	1.38434 ± 0.0005	1174.7 ± 1.4
308.15 K, x1 = 0.919	791.25 ± 0.43	1.38358 ± 0.0005	1174.6 ± 1.4
308.15 K, x1 = 1	792.32 ± 0.41	1.38284 ± 0.00049	1174.4 ± 1.4
318.15 K, x1 = 0.1227	783.39 ± 0.44	1.38489 ± 0.00049	1138.5 ± 1.4
318.15 K, x1 = 0.2361	782.07 ± 0.42	1.38415 ± 0.0005	1137.9 ± 1.4
318.15 K, x1 = 0.3467	781.42 ± 0.42	1.38335 ± 0.0005	1137.2 ± 1.4
318.15 K, x1 = 0.4522	780.93 ± 0.42	1.38254 ± 0.0005	1136.6 ± 1.4
318.15 K, x1 = 0.5521	780.55 ± 0.42	1.38177 ± 0.0005	1136.1 ± 1.4
318.15 K, x1 = 0.6518	780.41 ± 0.41	1.38095 ± 0.0005	1135.5 ± 1.4
318.15 K, x1 = 0.744	780.42 ± 0.42	1.38018 ± 0.0005	1134.9 ± 1.4
318.15 K, x1 = 0.8299	780.73 ± 0.42	1.37943 ± 0.0005	1134.4 ± 1.4
318.15 K, x1 = 0.919	781.32 ± 0.43	1.3786 ± 0.0005	1133.8 ± 1.4
318.15 K, x1 = 1	782.44 ± 0.41	1.37782 ± 0.00049	1133.3 ± 1.4
328.15 K, x1 = 0.1227	773.65 ± 0.44	1.37968 ± 0.00049	1101 ± 1.4
328.15 K, x1 = 0.2361	772.15 ± 0.43	1.37897 ± 0.00049	1100.1 ± 1.4
328.15 K, x1 = 0.3467	771.4 ± 0.42	1.37819 ± 0.0005	1099.2 ± 1.4
328.15 K, x1 = 0.4522	770.91 ± 0.42	1.3774 ± 0.0005	1098.3 ± 1.4
328.15 K, x1 = 0.5521	770.35 ± 0.42	1.37666 ± 0.0005	1097.5 ± 1.4
328.15 K, x1 = 0.6518	770.02 ± 0.42	1.37589 ± 0.0005	1096.6 ± 1.4
328.15 K, x1 = 0.744	770.12 ± 0.42	1.37513 ± 0.0005	1095.8 ± 1.4
328.15 K, x1 = 0.8299	770.56 ± 0.42	1.37437 ± 0.0005	1095.1 ± 1.4
328.15 K, x1 = 0.919	771.22 ± 0.43	1.37356 ± 0.0005	1094.3 ± 1.4
328.15 K, x1 = 1	772.43 ± 0.42	1.3728 ± 0.00049	1093.6 ± 1.4
338.15 K, x1 = 0.1227	763.26 ± 0.45	1.37559 ± 0.00049	1063 ± 1.4
338.15 K, x1 = 0.2361	761.48 ± 0.43	1.37472 ± 0.0005	1061.8 ± 1.4
338.15 K, x1 = 0.3467	760.59 ± 0.42	1.37383 ± 0.0005	1060.7 ± 1.4
338.15 K, x1 = 0.4522	760.08 ± 0.42	1.37293 ± 0.0005	1059.6 ± 1.4
338.15 K, x1 = 0.5521	759.46 ± 0.42	1.37206 ± 0.0005	1058.6 ± 1.4
338.15 K, x1 = 0.6518	759.14 ± 0.42	1.37116 ± 0.0005	1057.6 ± 1.4
338.15 K, x1 = 0.744	759.29 ± 0.42	1.37027 ± 0.0005	1056.6 ± 1.4
338.15 K, x1 = 0.8299	759.87 ± 0.42	1.36944 ± 0.0005	1055.7 ± 1.4
338.15 K, x1 = 0.919	760.73 ± 0.44	1.36852 ± 0.0005	1054.8 ± 1.4
338.15 K, x1 = 1	762.27 ± 0.42	1.36764 ± 0.00049	1053.8 ± 1.4
